Measured values published in ChEMBL document CHEMBL1201862, “PubChem BioAssay data set” (2004).
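Protocol summary: plate cells (96-well), add compound at 5 concentrations, incubate 48 h, interpolate endpoints linearly. GI50 = concentration required for 50% inhibition of growth.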 Active and inactive are the calls of the source. Rule as the data show it: active = GI50 up to about 1.1 µM and inactive = higher.

What was measured:
Assay in all cases: NCI tumour cell line growth inhibition, 48 h
DMS-114 = tested on: DMS-114
LXFL 529 = tested on: LXFL 529
M19-MEL = tested on: M19-MEL
RXF 631 = tested on: RXF 631
DMS-273 = tested on: DMS-273
DLD-1 = tested on: DLD-1
SNB-78 = tested on: SNB-78
XF498 = tested on: XF498
HOP-18 = tested on: HOP-18

Row | Compound | GI50 (DMS-114) | GI50 (LXFL 529) | GI50 (M19-MEL) | GI50 (RXF 631) | GI50 (DMS-273) | GI50 (DLD-1) | GI50 (SNB-78) | GI50 (XF498) | GI50 (HOP-18)
1 | C=C(C)C1CC=C(C(=O)O)CC1 (stereo not given) | 1360 µM (inactive) | 1490 µM (inactive) | 1160 µM (inactive) | 839 µM (inactive) | 1340 µM (inactive) | 1490 µM (inactive) |  |  | 
2 | O=C(Nc1ccccc1)n1cc(-c2ccccn2)c(N2CCOCC2)n1 | 5.36 µM (inactive) | 7.89 µM (inactive) | 6.61 µM (inactive) |  | 3.44 µM (inactive) | 6.61 µM (inactive) | 24.9 µM (inactive) | 9.23 µM (inactive) | > 100 µM (inactive)
3 | N#CC(c1ccc(Cl)cc1)c1cccc(Cl)n1 (stereo not given) |  | 30.3 µM (inactive) | 60.1 µM (inactive) |  |  | 83 µM (inactive) | 67.3 µM (inactive) | 24.8 µM (inactive) | 
4 | CC1=CC(=O)NP(=O)(Oc2ccc(C)cc2)N1 (stereo not given) | > 100 µM (inactive) | > 100 µM (inactive) | > 100 µM (inactive) | > 100 µM (inactive) | > 100 µM (inactive) | > 100 µM (inactive) | > 100 µM (inactive) | > 100 µM (inactive) | > 100 µM (inactive)
5 | COc1ccccc1/N=N/c1c(-c2ccccc2)nn(C(=O)CC(=O)Nc2cccc(C)c2)c1-c1ccccc1 | 14.7 µM (inactive) | 15.4 µM (inactive) | 35.8 µM (inactive) | 7.4 µM (inactive) | 34.5 µM (inactive) | 25.8 µM (inactive) | 61.8 µM (inactive) | 16.4 µM (inactive) | > 100 µM (inactive)
6 | O=C(/C=C/c1ccc(OCC(=O)N2CCN(c3ccccc3)CC2)cc1)c1ccc(Cl)cc1 | > 65.3 µM (inactive) | > 92 µM (inactive) | > 100 µM (inactive) | 34.8 µM (inactive) | 55 µM (inactive) | > 100 µM (inactive) | 18.6 µM (inactive) |  | > 100 µM (inactive)
7 | NC(=S)N/N=C/c1cn(CCCl)c2ccccc12 | 21.9 µM (inactive) | 39.7 µM (inactive) | 52.1 µM (inactive) |  |  | 71.9 µM (inactive) | > 100 µM (inactive) |  | 61.9 µM (inactive)
8 | COc1ccc([C@@H]2OC(=O)C3C2C(=O)O[C@H]3c2ccc(OC)cc2)cc1 (stereo not given in full) | > 100 µM (inactive) | > 100 µM (inactive) | > 100 µM (inactive) | > 100 µM (inactive) | > 100 µM (inactive) | > 100 µM (inactive) | > 100 µM (inactive) | > 100 µM (inactive) | > 100 µM (inactive)
9 | O=C1C2=C(CCCCC2)C2CCCCC12O (stereo not given) | > 100 µM (inactive) | > 100 µM (inactive) | > 100 µM (inactive) |  | > 100 µM (inactive) | > 100 µM (inactive) | > 100 µM (inactive) | > 100 µM (inactive) | 
10 | Cc1ccc(Sc2ccc(C)cc2[N+](=O)[O-])c([N+](=O)[O-])c1 | > 100 µM (inactive) | > 100 µM (inactive) | > 100 µM (inactive) |  | > 100 µM (inactive) |  | > 100 µM (inactive) | > 100 µM (inactive) | > 100 µM (inactive)
11 | COc1cc(NS(C)(=O)=O)ccc1Nc1c2ccccc2nc2c1[nH]c1ccc(NC3OC(CO)C(O)C(O)C3O)cc12 (stereo not given) | < 0.01 µM (active) | 0.9 µM (active) | 0.165 µM (active) |  | < 0.01 µM (active) | 0.293 µM (active) | 1.27 µM (inactive) |  | 0.048 µM (active)
12 | CN1C/C(=C\c2ccccc2)C2=NN(C(N)=S)[C@H](c3ccccc3)[C@@H]2C1 |  | 29.4 µM (inactive) | 55.2 µM (inactive) |  | 47.4 µM (inactive) | 53.7 µM (inactive) | 28.1 µM (inactive) | > 100 µM (inactive) | 
13 | CCOC(=O)[C-]([N+]#N)[Si](C)(C)C | > 100 µM (inactive) |  | > 100 µM (inactive) |  | > 100 µM (inactive) | > 100 µM (inactive) | > 100 µM (inactive) | 56.9 µM (inactive) | > 100 µM (inactive)
14 | O=C(O)CNc1c2ccccc2nc2ccccc12 | 60.4 µM (inactive) | > 100 µM (inactive) |  | > 100 µM (inactive) | > 100 µM (inactive) | > 100 µM (inactive) |  | > 100 µM (inactive) | 
15 | c1ccc(COCC2OC3c4ccccc4COC3C2OCc2ccccc2)cc1 (stereo not given) | 49.5 µM (inactive) |  | > 100 µM (inactive) | > 100 µM (inactive) | 83.6 µM (inactive) | > 100 µM (inactive) | > 100 µM (inactive) |  | > 100 µM (inactive)
16 | Cc1cc(=O)n(-c2ccccc2)c(=O)o1 | > 100 µM (inactive) | > 100 µM (inactive) | > 100 µM (inactive) |  | > 100 µM (inactive) | > 100 µM (inactive) | > 100 µM (inactive) |  | > 100 µM (inactive)
17 | CC1OC(n2cc(C(F)(F)F)c(=O)[nH]c2=O)C=CC1=O (stereo not given) |  | 17.1 µM (inactive) | 20.3 µM (inactive) | 12.7 µM (inactive) |  | 18.8 µM (inactive) | 15.8 µM (inactive) | 16.6 µM (inactive) | 
18 | COC(=O)C1=C(C(=O)OC)C2C(C)=CC(C)=CN2C(C#N)=C(SC)S1 (stereo not given) | 22.6 µM (inactive) | 16.9 µM (inactive) | 17.7 µM (inactive) |  | 31.8 µM (inactive) | 22.6 µM (inactive) | 41.3 µM (inactive) |  | 
19 | O=C(COc1ccc(Cl)cc1)N1CCN(C(=O)COc2ccc(Cl)cc2)c2ccccc21 | 29.5 µM (inactive) | 37.4 µM (inactive) | 38.1 µM (inactive) |  | 39.2 µM (inactive) | 64 µM (inactive) | 45.4 µM (inactive) | 24.5 µM (inactive) | 71.3 µM (inactive)
20 | CC12CP(=O)(c3ccccc3)CC1C2(Cl)Cl (stereo not given) | > 100 µM (inactive) | > 100 µM (inactive) | > 100 µM (inactive) |  | > 100 µM (inactive) | > 100 µM (inactive) | > 100 µM (inactive) | > 100 µM (inactive) | > 100 µM (inactive)
21 | N#CC1(C=O)c2ccccc2C=CN1C(=O)c1ccccc1 (stereo not given) | 19.8 µM (inactive) | 33.3 µM (inactive) | 33.7 µM (inactive) | 56.5 µM (inactive) | 49.2 µM (inactive) |  | 78.7 µM (inactive) | 22 µM (inactive) | 41.4 µM (inactive)
22 | COC(=O)C(=O)C(C(=O)C(=O)Nc1ccc(C)cc1C)c1nc2ccccc2nc1O (stereo not given) |  | 43.9 µM (inactive) | > 100 µM (inactive) | 46.7 µM (inactive) |  | 50.7 µM (inactive) | 41.6 µM (inactive) | 58.3 µM (inactive) | 36 µM (inactive)
23 | CC(=O)Nc1c(Nc2ccccc2)[nH]c(C)nc1=S | > 100 µM (inactive) | > 100 µM (inactive) |  |  | > 100 µM (inactive) | > 100 µM (inactive) | > 100 µM (inactive) | > 100 µM (inactive) | 
24 | CC(=O)OCC1OC(N2C(=O)C(=O)c3ccccc32)C(OC(C)=O)C(OC(C)=O)C1OC(C)=O (stereo not given) | > 100 µM (inactive) | > 100 µM (inactive) | 91.2 µM (inactive) | > 100 µM (inactive) | > 100 µM (inactive) | > 100 µM (inactive) |  |  | > 10 µM (inactive)
25 | CC[C@H]1[C@@H](C)C=C[C@@H](C)N1S(=O)(=O)c1ccc(C)cc1 | 19.1 µM (inactive) | 73.8 µM (inactive) | > 100 µM (inactive) | 16.7 µM (inactive) | > 100 µM (inactive) |  | > 100 µM (inactive) | 14.1 µM (inactive) | 
26 | Cc1c(Cl)ccc2[s+]snc12 |  | 29.6 µM (inactive) | 33 µM (inactive) | 33.4 µM (inactive) | 38.2 µM (inactive) | 25.4 µM (inactive) | 31 µM (inactive) | 25.3 µM (inactive) | 29 µM (inactive)
27 | O=C1C2C3C=C4c5ccccc5N(c5ccccc5)C4(C2C(=O)N1c1ccc(Cl)cc1)[C@H]1C(=O)N(c2ccc(Cl)cc2)C(=O)[C@@H]31 (stereo not given in full) | > 100 µM (inactive) | > 100 µM (inactive) | > 100 µM (inactive) | 6.49 µM (inactive) | > 100 µM (inactive) | > 100 µM (inactive) | > 100 µM (inactive) | > 100 µM (inactive) | > 100 µM (inactive)
28 | Cc1ccc(-c2cc(O)c3cc4c(cc3n2)OCO4)cc1 | 2.48 µM (inactive) | 0.748 µM (active) | 0.805 µM (active) |  | 1.35 µM (inactive) | 0.859 µM (active) |  |  | 3.07 µM (inactive)
